“Also recorded” adds a separate entry of the source.
Assays:
[1] = Pharmacokinetics of MR2 CX-8998 in fed versus fasted subjects; type: in vivo, human; settings: MR2 CX-8998, single dose 1×8 mg
From the text: Subjects will be screened for study eligibility within 28 days before administration of the first dose of study drug. Subjects who meet the study eligibility criteria will be admitted to the clinical research unit in the afternoon of the day before administration of the first dose of study drug (Period 1/Day −1).

[2] = system: patients with essential tremor; experiment: T-CALM: treatment-emergent adverse events, discontinuations, dosage reductions; type: in vivo, human
Method: T-CALM employed the following dose titration scheme: Week 1 at 4 mg BID (8 mg/day), Week 2 at 8 mg BID (16 mg/day) and Weeks 3 & 4 at 10 mg BID (20 mg/day). […] Adverse Events were coded using MedDRA V20.0. Only treatment emergent adverse events with an onset date and time after the initiation of study drug until 30 days after discontinuation of drug were reported. For subjects who experience the same coded event more than once, a single event was presented. Adverse events were attributed to a study week based on the onset date, i.e. events that started on or after Visit 1 and prior to Visit 2 were classified as Study Week 1.
Adverse events are characterized by maximum severity, drug-related adverse events, serious adverse events and adverse events leading to discontinuation of study.
Safety procedures involved collection of all TEAEs (treatment-emergent adverse events) coded into the Medical Dictionary for Regulatory Activities (MedDRA) version 20. Adverse events were classified by maximum severity, drug-related adverse events, serious adverse events, and adverse events leading to patient discontinuation.

[3] = N = 48, inadequate drug supply at Visit 4

Compound: CC(C)c1ccc(CC(=O)N[C@H](C)c2ccc(OCC(F)(F)F)cn2)cc1 [CX-8998]
- effect of fed state on overall exposure as measured by AUC [1]: does not appear to significantly impact overall exposure
- effect of fed vs fasted state on early absorption [1]: impacts early absorption
- effect of fed vs fasted state on late absorption [1]: does not appear to significantly impact late absorption
- Discontinuation due to Nervous System Disorders, subjects, percent ([2]; N = 48): (8%)
- Discontinuation due to Psychiatric Disorders, subjects, number ([2]; N = 48): 4
- Discontinuation due to Psychiatric Disorders, subjects, percent ([2]; N = 48): (8%)
- Dosage reduced during study, subjects, percent ([2]; N = 48): (8%)
- Dosage reduction due to adverse event, subjects, number ([2]; N = 48): 3
- Dosage reduction due to adverse event, subjects, percent ([2]; N = 48): (6%)
- Subjects with at least 1 event leading to discontinuation, number ([2]; N = 48): 8
- Subjects with at least 1 event leading to discontinuation, percent ([2]; N = 48): (17%)
- Dosage reduction due to other reasons, subjects, number [2, 3]: 1
- Dosage reduction due to other reasons, subjects, percent [2, 3]: (2%)^3
- TEAE Ear and Labyrinth Disorders (system organ class), subjects, number (%) ([2]; Safety Analysis Set, n = 48): 2 (4%)
- TEAE Gastrointestinal Disorders (system organ class), subjects, number (%) ([2]; Safety Analysis Set, n = 48): 9 (19%)
- TEAE Infections and Infestations (system organ class), subjects, number (%) ([2]; Safety Analysis Set, n = 48): 4 (8%)
- TEAE Nervous System Disorders (system organ class), subjects, number (%) ([2]; Safety Analysis Set, n = 48): 20 (42%)
- TEAE Psychiatric Disorders (system organ class), subjects, number (%) ([2]; Safety Analysis Set, n = 48): 12 (52%)
- Dosage reduction due to TEAEs, patients ([2]; T-CALM): 6%
- Serious adverse events (alcohol withdrawal syndrome, major depression, suicidal ideation), deemed unrelated to study drug ([2]; T-CALM): one patient
- patients with at least 1 TEAE ([2]; T-CALM): 58%
- Discontinuation due to adverse events (TEAEs), patients n (%) ([2]; T-CALM, N=48): 8 (17%)
- TEAE Abnormal dreams, n (%) ([2]; T-CALM, n = 48): 2 (4%)
- TEAE Disturbance in attention, n (%) ([2]; T-CALM, n = 48): 2 (4%)
- TEAE Dizziness, n (%) ([2]; T-CALM, n = 48): 10 (21%)
- TEAE Dry mouth, n (%) ([2]; T-CALM, n = 48): 2 (4%)
- TEAE Dysgeusia, n (%) ([2]; T-CALM, n = 48): 2 (4%)
- TEAE Ear and Labyrinth Disorders, n (%) ([2]; T-CALM, n = 48): 2 (4%)
- TEAE Euphoric mood, n (%) ([2]; T-CALM, n = 48): 3 (6%)
- TEAE Gastrointestinal Disorders, n (%) ([2]; T-CALM, n = 48): 9 (19%)
- TEAE Hallucination, n (%) ([2]; T-CALM, n = 48): 2 (4%)
- TEAE Headache, n (%) ([2]; T-CALM, n = 48): 4 (8%)
- TEAE Hypesthesia, n (%) ([2]; T-CALM, n = 48): 0
- TEAE Infections and Infestations, n (%) ([2]; T-CALM, n = 48): 4 (8%)
- TEAE Insomnia, n (%) ([2]; T-CALM, n = 48): 3 (6%)
- TEAE Nausea, n (%) ([2]; T-CALM, n = 48): 1 (2%)
- TEAE Nervous System Disorders, n (%) ([2]; T-CALM, n = 48): 20 (42%)
- TEAE Paraesthesia, n (%) ([2]; T-CALM, n = 48): 2 (4%)
- TEAE Somnolence, n (%) ([2]; T-CALM, n = 48): 1 (2%)
- TEAE Tinnitus, n (%) ([2]; T-CALM, n = 48): 2 (4%)
- TEAE Urinary Tract Infection, n (%) ([2]; T-CALM, n = 48): 2 (4%)
- TEAE Vomiting, n (%) ([2]; T-CALM, n = 48): 0
- safety and tolerability in ET patients ([2]; T-CALM, up to 10 mg BID): safe and well tolerated
- Adverse Event (MedDRA Preferred Term) leading to dosage reduction ([2]; individual subjects 26-001 (10 to 8 mg BID), 31-023 (8 to 4 mg BID), 33-004 (4 to 2 mg BID), one line each, considered related to study drug): Anxiety; also recorded: Electrocardiogram; also recorded: Headache
- AE Any Event, percent of subjects ([2]; onset in study week 1): (40%)
- AE Central Nervous System Disorders, number of subjects ([2]; onset in study week 1): 16
- AE Central Nervous System Disorders, percent of subjects ([2]; onset in study week 1): (33%)
- AE Ear and Labyrinth Disorders, number of subjects ([2]; onset in study week 1): 2
- AE Ear and Labyrinth Disorders, percent of subjects ([2]; onset in study week 1): (4%)
- AE Eye Disorders, number of subjects ([2]; onset in study week 1): 1
- AE Eye Disorders, percent of subjects ([2]; onset in study week 1): (2%)
- AE Gastrointestinal Disorders, number of subjects ([2]; onset in study week 1): 7
- AE Gastrointestinal Disorders, percent of subjects ([2]; onset in study week 1): (15%)
- AE Infections and Infestations, number of subjects ([2]; onset in study week 1): 0
- AE Injury, Poisoning and Procedural Complications, percent of subjects ([2]; onset in study week 1): (2%)
- AE Investigations, number of subjects ([2]; onset in study week 1): 1
- AE Investigations, percent of subjects ([2]; onset in study week 1): (2%)
- AE Metabolism and Nutrition Disorders, number of subjects ([2]; onset in study week 1): 1
- AE Metabolism and Nutrition Disorders, percent of subjects ([2]; onset in study week 1): (2%)
- AE Musculoskeletal and Connective Tissue Disorders, number of subjects ([2]; onset in study week 1): 1
- AE Musculoskeletal and Connective Tissue Disorders, percent of subjects ([2]; onset in study week 1): (2%)
- AE Neoplasms, number of subjects ([2]; onset in study week 1): 1
- AE Neoplasms, percent of subjects ([2]; onset in study week 1): (2%)
- AE Psychiatric Disorders, number of subjects ([2]; onset in study week 1): 8
- AE Psychiatric Disorders, percent of subjects ([2]; onset in study week 1): (17%)
- AE Respiratory, Thoracic and Mediastinal Disorders, percent of subjects ([2]; onset in study week 1): (2%)
- AE Skin and Subcutaneous Tissue Disorders, number of subjects ([2]; onset in study week 1): 1
- AE Skin and Subcutaneous Tissue Disorders, percent of subjects ([2]; onset in study week 1): (2%)
- AE Vascular Disorders, number of subjects ([2]; onset in study week 1): 0
- AE Any Event, percent of subjects ([2]; onset in study week 2): (21%)
- AE Central Nervous System Disorders, number of subjects ([2]; onset in study week 2): 4
- AE Central Nervous System Disorders, percent of subjects ([2]; onset in study week 2): (8%)
- AE Ear and Labyrinth Disorders, number of subjects ([2]; onset in study week 2): 0
- AE Eye Disorders, number of subjects ([2]; onset in study week 2): 0
- AE Gastrointestinal Disorders, number of subjects ([2]; onset in study week 2): 1
- AE Gastrointestinal Disorders, percent of subjects ([2]; onset in study week 2): (2%)
- AE Infections and Infestations, number of subjects ([2]; onset in study week 2): 2
- AE Infections and Infestations, percent of subjects ([2]; onset in study week 2): (4%)
- AE Investigations, number of subjects ([2]; onset in study week 2): 1
- AE Investigations, percent of subjects ([2]; onset in study week 2): (2%)
- AE Metabolism and Nutrition Disorders, number of subjects ([2]; onset in study week 2): 0
- AE Musculoskeletal and Connective Tissue Disorders, number of subjects ([2]; onset in study week 2): 1
- AE Musculoskeletal and Connective Tissue Disorders, percent of subjects ([2]; onset in study week 2): (2%)

From patent US20250312323A1 (Cavion, Inc., priority 2018, published 2025)
